In ChEMBL document CHEMBL6078725, “Discovery of novel xanthohumol C derivatives regulating XRCC2 transcription and expression for the treatment of colorectal cancer” (Bioorg Med Chem, 2025) one finds IC50 and Activity data, which are given here for 36 compounds.

Experiment [1] deals with HCT-116. The experiment is described as follows: Antiproliferative activity against human HCT-116 cells incubated for 48 hrs by MTS assay. The format is functional, cell-based. The note with it: HCT-116, 48 h.
A further experiment concerns RKO. The experiment is described as follows: Antiproliferative activity against human RKO cells incubated for 48 hrs by MTS assay. It counts as functional, cell-based. (Tetrazolium dyes change colour on reduction, which living cells bring about.)
For experiment [2], the system named is HCT-116. The experiment is described as follows: Antitumor activity against human HCT-116 cells xenografted in BALB/c mouse assessed as inhibition of tumor growth at 20 mg/kg, ip administered for 2 weeks. It counts as functional, organism-based. (In general: In xenograft studies the graft and the host belong to different species.)

Calls of active or inactive are those of the source. The calls are words filed in the database; no cut-off is given here.

In general, IC50 refers to the point on the concentration scale where inhibition reaches its midpoint. Low readings indicate greater potency in that assay, high ones weaker potency in that assay. In the case of `COc1cc2c(c(O)c1C(=O)/C=C/c1ccc(O)c(Br)c1)C=CC(C)(C)O2`, the IC50 turned out to be 24.6 µM in the experiment with HCT-116 [1] and 21.1 µM in the experiment on RKO.
In the case of `CCOc1ccc(Br)cc1/C=C/C(=O)c1c(OC)cc2c(c1O)C=CC(C)(C)O2`, the IC50 in the experiment with HCT-116 [1] stood at 117 µM; in the experiment on RKO, 165 µM.
On the same counts, the results for `COc1cc2c(c(O)c1C(=O)/C=C/c1cccc(N3CCN(C)CC3)c1)C=CC(C)(C)O2` are 12.5 µM and 128 µM.
`COc1cc2c(c(O)c1C(=O)/C=C/c1ccc(C(F)(F)F)cc1)C=CC(C)(C)O2`: the IC50 amounted to 26.2 µM in the experiment with HCT-116 [1] and 25.4 µM with RKO.
`COc1cc2c(c(OC)c1C(=O)/C=C/c1ccccc1)C=CC(C)(C)O2`: the figures for the IC50 with HCT-116 [1] and with RKO were 22.7 µM and 20.4 µM, respectively.
Taken in the same sequence, the figures for `COc1cc(/C=C/C(=O)c2c(OC)cc3c(c2O)C=CC(C)(C)O3)cc(OC)c1O` were 39.4 µM and 25.6 µM.
With `COc1cc2c(c(O)c1C(=O)/C=C/c1ccc(O)cc1)C=CC(C)(C)O2` [XANTHOHUMOL C], the half-maximal inhibitory concentration (IC50) with HCT-116 [1] stood at 25.9 µM; with RKO, 28.5 µM.
In the case of `COc1cc2c(c(O)c1C(=O)/C=C/c1ccc([N+](=O)[O-])cc1)C=CC(C)(C)O2`, the values for the IC50 in the experiment with HCT-116 [1] and in the experiment on RKO were 163 µM and 133 µM, respectively.
For the compound `COc1cc2c(c(O)c1C(=O)/C=C/c1ccccc1)C=CC(C)(C)O2`, the IC50 is 24.9 µM with HCT-116 [1] and 23.6 µM with RKO.
Consider `COc1cc2c(c(O)c1C(=O)/C=C/c1ccc(N3CCCCC3)cc1)C=CC(C)(C)O2`, for which the IC50 with HCT-116 [1] was 200 µM; with RKO, above 200 µM.
Turning to `COc1cc2c(c(O)c1C(=O)/C=C/c1ccc(Cl)cc1)C=CC(C)(C)O2`, the IC50 with HCT-116 [1] was 26.1 µM; with RKO it was 26.2 µM.
Taken in the same sequence, the figures for `COc1cc2c(c(O)c1C(=O)/C=C/c1ccc3[nH]ccc3c1)C=CC(C)(C)O2` were above 22.4 µM and 19.2 µM.
With `COc1cc2c(c(O)c1C(=O)/C=C/c1cccc(Br)c1)C=CC(C)(C)O2`, the IC50 is 36.7 µM with HCT-116 [1] and 35.9 µM in the experiment with RKO.
Take `COc1cc2c(c(O)c1C(=O)/C=C/c1cccc(C(C)(C)C)c1)C=CC(C)(C)O2`: the values for the IC50 in the experiment on HCT-116 [1] and with RKO were 74.2 µM and 89.8 µM, respectively.
Regarding `COc1ccc(/C=C/C(=O)c2c(OC)cc3c(c2O)C=CC(C)(C)O3)cc1Br`, the IC50 in the experiment on HCT-116 [1] was 44.6 µM; in the experiment with RKO, 35.6 µM.
Take `COc1ccc(/C=C/C(=O)c2c(OC)cc3c(c2O)C=CC(C)(C)O3)c(OC)c1OC`: the IC50 in the experiment on HCT-116 [1] came out at 26.3 µM; in the experiment on RKO, 23.2 µM.
Taken in the same sequence, the figures for `COc1cc2c(c(OC)c1C(=O)/C=C/c1ccc(Cl)cc1)C=CC(C)(C)O2` were above 12.7 µM and 9.04 µM.
Take `COc1cc2c(c(O)c1C(=O)/C=C/c1ccc(C(C)C)cc1)C=CC(C)(C)O2`: the figures for the IC50 with HCT-116 [1] and with RKO were 79.1 µM and 69.5 µM, respectively.
As for `COc1cc2c(c(OC)c1C(=O)/C=C/c1ccc(O)cc1)C=CC(C)(C)O2`, the 50% inhibitory concentration (IC50) in the experiment on HCT-116 [1] was found to be 46.4 µM; with RKO, 25.6 µM.
On to `CCN(CC)c1ccc(/C=C/C(=O)c2c(OC)cc3c(c2O)C=CC(C)(C)O3)cc1`, for which the IC50 with HCT-116 [1] and in the experiment on RKO was above 200 µM throughout.
Take `COc1cc2c(c(O)c1C(=O)/C=C/c1ccc(Br)cc1)C=CC(C)(C)O2`: the IC50 is 154 µM in the experiment on HCT-116 [1] and 157 µM in the experiment on RKO.
As for `COc1cc2c(c(O)c1C(=O)/C=C/c1ccccc1O)C=CC(C)(C)O2`, the figures for the IC50 in the experiment on HCT-116 [1] and with RKO were 12.9 µM and 10.9 µM, respectively.
Consider `COc1cccc(/C=C/C(=O)c2c(OC)cc3c(c2O)C=CC(C)(C)O3)c1`, for which the IC50 in the experiment on HCT-116 [1] amounted to 25.1 µM; with RKO, 24.4 µM.
As for `COc1cc(/C=C/C(=O)c2c(OC)cc3c(c2O)C=CC(C)(C)O3)cc(OC)c1OC`, the IC50 worked out at 25.4 µM in the experiment with HCT-116 [1] and 21.5 µM in the experiment on RKO.
Taken in the same sequence, the figures for `COc1cc2c(c(O)c1C(=O)/C=C/c1ccc(N3CCCC3)cc1)C=CC(C)(C)O2` were above 200 µM and above 200 µM.
Turning to `COc1ccc(/C=C/C(=O)c2c(OC)cc3c(c2O)C=CC(C)(C)O3)cc1O`, the IC50 in the experiment with HCT-116 [1] was 25 µM; in the experiment with RKO, 18.3 µM.
On to `COc1cc2c(c(O)c1C(=O)/C=C/c1cccc(OCc3ccccc3)c1)C=CC(C)(C)O2`, for which the IC50 in the experiment on HCT-116 [1] turned out to be 189 µM; with RKO it was 149 µM.
As to `COc1cc2c(c(O)c1C(=O)/C=C/c1ccc(N(C)C)cc1)C=CC(C)(C)O2`, the IC50 with HCT-116 [1] was above 200 µM; in the experiment with RKO, 118 µM.
`COc1cc2c(c(O)c1C(=O)/C=C/c1ccc(N3CCN(C)CC3)cc1)C=CC(C)(C)O2`: the 50% inhibitory concentration (IC50) in the experiment with HCT-116 [1] was found to be 12.5 µM; in the experiment with RKO, 13.5 µM.
Consider `COc1cc2c(c(O)c1C(=O)/C=C/c1ccccc1Br)C=CC(C)(C)O2`, for which the figures for the IC50 in the experiment with HCT-116 [1] and in the experiment on RKO were 20.5 µM and 23.1 µM, respectively.
For `COc1cccc(/C=C/C(=O)c2c(OC)cc3c(c2O)C=CC(C)(C)O3)c1OC`, the IC50 was 23.1 µM in the experiment on HCT-116 [1] and 13.9 µM with RKO.
For the compound `COc1cc(/C=C/C(=O)c2c(OC)cc3c(c2O)C=CC(C)(C)O3)cc(OC)c1`, the IC50 with HCT-116 [1] is 24.9 µM; in the experiment on RKO, 25.1 µM.
Consider `COc1cc2c(c(O)c1C(=O)/C=C/c1cn(C)c3ccccc13)C=CC(C)(C)O2`, for which the IC50 in the experiment on HCT-116 [1] and in the experiment on RKO was above 200 µM each time.
In the case of `COc1cc(/C=C/C(=O)c2c(OC)cc3c(c2O)C=CC(C)(C)O3)ccc1O`, the IC50 amounted to 24.8 µM in the experiment on HCT-116 [1] and 17.6 µM in the experiment with RKO.
Regarding `O=c1[nH]cc(F)c(=O)[nH]1`, in the experiment on HCT-116 [2], the outcome was Active.
Turning to `COc1cc(O)ccc1/C=C/C(=O)c1c(OC)cc2c(c1O)C=CC(C)(C)O2`, the IC50 was 32.1 µM in the experiment with HCT-116 [1] and 28.4 µM in the experiment on RKO.
